Results: patent US9708359B2, “Pyrrolopyrimidine nucleosides and analogs thereof” (Chimerix, Inc., priority 2015, dated 2017)
“And” between values parts separate entries of the source, which are not always exact repeats. Equal entries are not always repeated.

System: mouse norovirus
Assay: Mouse Norovirus (MNV) assay in RAW cells
Details: murine norovirus, Table 7

SMILES | EC50 [µM]
Cc1nc(N)c2c(C(N)=O)cn([C@@H]3O[C@H](COC(=O)[C@@H](N)C(C)C)[C@@H](O)[C@H]3O)c2n1 [Compound 2] | 1.9 to 4.15
Cc1nc(N)c2c(C(N)=O)cn([C@@H]3O[C@H](COC(=O)[C@H](C)N)[C@@H](O)[C@H]3O)c2n1 [Compound 3] | 2
CCCCCCCCCCCCCCCCOCCC(=O)OC[C@H]1O[C@@H](n2cc(C(N)=O)c3c(N)nc(C)nc32)[C@H](O)[C@@H]1O [Compound 4] | 3.5
Cc1nc(N)c2c(C(N)=O)cn([C@@H]3O[C@H](COC(=O)[C@@H](N)Cc4ccccc4)[C@@H](O)[C@H]3O)c2n1 [Compound 5] | 2.2
[2H][C@@]1(n2cc(C(N)=O)c3c(N)nc(C)nc32)O[C@H](CO)[C@@H](O)[C@H]1O [Compound 6] | 3.08
Cc1nc(N)c2c(C(N)=O)cn([C@@H]3O[C@H](COP(=O)(O)O)[C@@H](O)[C@H]3O)c2n1 [Compound 71] | 3.15
Cc1nc(N)c2c(C(N)=O)cn([C@@H]3O[C@H](COC(=O)[C@H](CC(C)C)NC(=O)OCC4c5ccccc5-c5ccccc54)[C@@H](O)[C@H]3O)c2n1 [Compound 76] | 16.4
Cc1nc(N)c2c(C(N)=O)cn([C@@H]3O[C@H](COC(=O)[C@@H](N)CC(C)C)[C@@H](O)[C@H]3O)c2n1 [Compound 77] | 4.4

Same assay, conditions: murine norovirus, Table 8; N/A = assayed but no EC50 value could be measured

SMILES | EC50
Cc1nc(O)c2c(C(N)=O)cn([C@@H]3O[C@H](CO)[C@@H](O)[C@H]3O)c2n1 [Compound 7] | 53.8 µM and 38.4 µM
Cc1nc(N)c2c(C(N)=O)cn([C@@H]3O[C@H](CO)[C@@H](O)[C@H]3O)c2[n+]1[O-] [Compound 8] | 23.6 µM
Cc1nc(N)c2c(C(N)=O)cn([C@@H]3O[C@H](CO)[C@@H](O)[C@@H]3O)c2n1 [Compound 9] | 50 µM
Cc1nc(N)c2c(-c3nn[nH]n3)cn([C@@H]3O[C@H](CO)[C@@H](O)[C@H]3O)c2n1 [Compound 10] | 61.5 µM
Cc1nc(N)c2c(C#N)cn([C@@H]3O[C@H](CO)[C@@H](O)[C@H]3O)c2n1 [Compound 11] | > 121 µM
CCc1nc(N)c2c(C(N)=O)cn([C@@H]3O[C@H](CO)[C@@H](O)[C@H]3O)c2n1 [Compound 13] | > 200 µM
Cc1nc(N)c2c(I)cn([C@@H]3O[C@H](CO)[C@@H](O)[C@H]3O)c2n1 [Compound 14] | > 100 µM
NC(=O)c1cn([C@@H]2O[C@H](CO)[C@@H](O)[C@H]2O)c2nc(-c3ccccc3)nc(N)c12 [Compound 15] | > 100 µM
NC(=S)c1cn([C@@H]2O[C@H](CO)[C@@H](O)[C@H]2O)c2nc(-c3ccccc3)nc(N)c12 [Compound 16] | > 100 µM
N#Cc1cn([C@@H]2O[C@H](CO)[C@@H](O)[C@H]2O)c2nc(-c3ccccc3)nc(N)c12 [Compound 17] | > 100 µM
Cc1nc(N)c2c(C(N)=O)cn([C@@H]3O[C@H](COCc4ccccc4)[C@@H](O)[C@H]3O)c2n1 [Compound 19] | > 100 µM
Cc1nc(N)c2c(C(N)=O)cn([C@@H]3O[C@H](CO)[C@H]4OC(C)(C)O[C@H]43)c2n1 [Compound 20] | > 20 µM
CCOP(=O)(COC[C@H]1O[C@@H](n2cc(C(N)=O)c3c(N)nc(C)nc32)[C@@H]2OC(C)(C)O[C@@H]21)OCC [Compound 21] | > 100 µM
CCCCCCCCCCCCCCCOCCCOP(=O)(O)COC[C@H]1O[C@@H](n2cc(C(N)=O)c3c(N)nc(C)nc32)[C@@H]2OC(C)(C)O[C@@H]21 [Compound 22] | > 100 µM
Cc1nc(N)c2c(C(N)=O)cn([C@@H]3O[C@H](COCP(=O)(O)O)[C@@H](O)[C@H]3O)c2n1 [Compound 23] | > 100 µM
CCCCCCCCCCCCCCCCOCCCOP(=O)(O)COC[C@H]1O[C@@H](n2cc(C(N)=O)c3c(N)nc(C)nc32)[C@H](O)[C@@H]1O [Compound 24] | > 20 µM
CCOP(=O)(COC[C@H]1O[C@@H](n2cc(C(N)=O)c3c(N)nc(C)nc32)[C@H](O)[C@@H]1O)OCC [Compound 25] | > 100 µM
NC(=O)c1cn([C@@H]2O[C@H](CO)[C@@H](O)[C@H]2O)c2nc(C(F)(F)F)nc(N)c12 [Compound 26] | > 100 µM
Cc1nc(Cl)c2c(C#N)cn([C@@H]3O[C@H](CO)[C@@H](O)[C@H]3O)c2n1 [Compound 29] | > 100 µM
COc1nc(C)nc2c1c(C#N)cn2[C@@H]1O[C@H](CO)[C@@H](O)[C@H]1O [Compound 30] | > 100 µM
Cc1nc(O)c2c(C#N)cn([C@@H]3O[C@H](CO)[C@@H](O)[C@H]3O)c2n1 [Compound 31] | > 100 µM

SMILES | EC50
Cc1nc(N)c2c(C(N)=O)c[nH]c2n1 [Compound 32] | > 100 µM
Cc1nc(N)c2c(C(=O)O)cn([C@@H]3O[C@H](COCc4ccccc4)[C@@H](O)[C@H]3O)c2n1 [Compound 33] | > 100 µM
Cc1ncc2c(C(=O)O)cn([C@@H]3O[C@H](CO)[C@@H](O)[C@H]3O)c2n1 [Compound 34] | > 100 µM
Cc1ncc2c(C(N)=O)cn([C@@H]3O[C@H](CO)[C@@H](O)[C@H]3O)c2n1 [Compound 35] | > 100 µM
CNc1nc(C)nc2c1c(C(N)=O)cn2[C@@H]1O[C@H](CO)[C@@H](O)[C@H]1O [Compound 36] | > 100 µM
Cc1nc(N(C)C)c2c(C(N)=O)cn([C@@H]3O[C@H](CO)[C@@H](O)[C@H]3O)c2n1 [Compound 37] | > 100 µM
Cc1nc(N)c2c(C(N)=O)cn([C@@H]3O[C@H](CO)[C@@H](O)[C@H]3O)c2n1 [Compound 38] | > 100 µM
CNC(=O)c1cn([C@@H]2O[C@H](CO)[C@@H](O)[C@H]2O)c2nc(C)nc(N)c12 [Compound 39] | > 100 µM
Cc1nc(N)c2c(C(N)=O)cn([C@@H]3O[C@H](CO)[C@@H](O)C3(F)F)c2n1 [Compound 40] | > 100 µM
Cc1nc(N)c2c(C(=O)N(C)C)cn([C@@H]3O[C@H](CO)[C@@H](O)[C@H]3O)c2n1 [Compound 41] | > 100 µM
COc1nc(C)nc2c1c(I)cn2[C@@H]1O[C@H](CO)[C@@H](O)[C@H]1O [Compound 42] | > 100 µM
CSc1nc(C)nc2c1c(I)cn2[C@@H]1O[C@H](CO)[C@@H](O)[C@H]1O [Compound 43] | > 100 µM
Cc1nc(N)c2c(C(N)=O)c(Br)n([C@@H]3O[C@H](CO)[C@@H](O)[C@H]3O)c2n1 [Compound 44] | > 100 µM
COC(=O)c1c[nH]c2nc(C)nc(Cl)c12 [Compound 45] | > 100 µM
Cc1nc(N)c2cc[nH]c2n1 [Compound 46] | > 100 µM
COc1nc(C)nc2c1c(CN)cn2[C@@H]1O[C@H](CO)[C@@H](O)[C@H]1O [Compound 47] | > 100 µM
Cc1nc(N)c2ccn([C@@H]3O[C@H](CO)[C@@H](O)[C@H]3O)c2n1 [Compound 48] | > 100 µM
Cc1nc(N)c2c(C(N)=O)cn(C[C@H](O)CO)c2n1 [Compound 50] | > 100 µM
Cc1nc(N)c2c(C(N)=O)cn(C[C@H](C)O)c2n1 [Compound 51] | > 100 µM
Cc1nc(N)c2c(C(N)=O)cn(C[C@@H](CO)OCP(=O)(O)O)c2n1 [Compound 52] | > 100 µM
CCOP(=O)(CO[C@H](CO)Cn1cc(C(N)=O)c2c(N)nc(C)nc21)OCC [Compound 53] | > 100 µM

SMILES | EC50
Cc1nc(N)c2ccn(C[C@H](C)O)c2n1 [Compound 54] | > 100 µM
CCCCCCCCCCCCCCCCOCCCOP(=O)(O)CO[C@H](CO)Cn1cc(C(N)=O)c2c(N)nc(C)nc21 [Compound 56] | 75.3 µM
Cc1nc(N)c2c(C(N)=O)cn([C@@H]3O[C@H](CO)[C@@H](O)[C@H]3N=[N+]=[N-])c2n1 [Compound 57] | > 100 µM
CCOP(=O)(CO[C@H](C)Cn1cc(C(N)=O)c2c(N)nc(C)nc21)OCC [Compound 58] | > 100 µM
Cc1nc(N)c2c(C(N)=O)cn(C[C@@H](C)OCP(=O)(O)O)c2n1 [Compound 59] | > 100 µM
COc1nc(C)nc2c1c(C(N)=O)cn2[C@@H]1O[C@H](COC(=O)[C@@H](NC(=O)OC(C)(C)C)C(C)C)[C@@H](O)[C@@]1(C)O [Compound 61] | > 100 µM
Cc1nc(N)c2c(C(N)=O)cn(C3(C)O[C@H](COC(=O)[C@@H](N)C(C)C)[C@@H](O)[C@H]3O)c2n1 (stereo partly drawn) [Compound 62] | > 100 µM
Cc1nc(N)c2c(C(N)=O)cn([C@@H]3O[C@H](COC(=O)[C@@H](NC(=O)OCC4C5C=CC=CC5C5C=CC=CC54)C(C)C)[C@@H](O)[C@H]3O)c2n1 (stereo partly drawn) [Compound 63] | > 100 µM
CCOP(=O)(COC(CO)Cn1cc(C(N)=O)c2c(N)nc(C)nc21)OCC (stereo not drawn) [Compound 64] | > 100 µM
COc1ccc2cc([C@@H](C)C(=O)OC[C@H]3O[C@@H](n4cc(C(N)=O)c5c(N)nc(C)nc54)[C@@H]4OC(C)(C)O[C@@H]43)ccc2c1 [Compound 65] | > 100 µM
CCOP(=O)(COC[C@@H]1C=C[C@H](n2cc(C(N)=O)c3c(N)nc(C)nc32)O1)OCC [Compound 67] | > 100 µM
CCOP(=O)(CO[C@H]1O[C@@H](n2cc(C#N)c3c(N)nc(C)nc32)[C@H](O)[C@@H]1O)OCC [Compound 68] | > 100 µM
Cc1nc(N)c2c(C(N)=O)cn([C@@H]3O[C@H](OCP(=O)(O)O)[C@@H](O)[C@H]3O)c2n1 [Compound 70] | > 100 µM
CCOP(=O)(CO[C@H]1O[C@@H](n2cc(C(N)=O)c3c(N)nc(C)nc32)[C@H](O)[C@@H]1O)OCC [Compound 73] | > 100 µM
CCOP(=O)(C[C@H]1O[C@@H](n2cc(C(N)=O)c3c(N)nc(C)nc32)[C@H](O)[C@@H]1O)OCC [Compound 74] | > 100 µM
Cc1nc(N)c2c(C(N)=O)cn([C@@H]3O[C@H](CP(=O)(O)O)[C@@H](O)[C@H]3O)c2n1 [Compound 75] | > 100 µM
Cc1nc(N)c2c(C(N)=O)cn([C@@H]3O[C@@H]4OCP(=O)(O)O[C@H]4[C@H]3O)c2n1 [Compound 78] | > 100 µM
CCCCCCCCCCCCCCCCOCCCOP(=O)(O)OC[C@H]1O[C@@H](n2cc(C(N)=O)c3c(N)nc(C)nc32)[C@H](O)[C@@H]1O [Compound 79] | > 100 µM
Cc1nc(N)c2ccn([C@@H]3O[C@H](COCc4ccccc4)[C@@H](O)[C@H]3O)c2n1 [Compound 82] | > 100 µM
NC(=O)c1cn([C@@H]2O[C@H](CO)[C@@H](O)[C@H]2O)c2nc(N)nc(N)c12 [Compound 83] | > 100 µM
Cc1nc(N)c2c(S(=O)(=O)O)cn([C@@H]3O[C@H](CO)[C@@H](O)[C@H]3O)c2n1 [Compound 84] | > 100 µM

Same assay, conditions: murine norovirus, Table 8; N/A = assayed but no EC50 value could be measured; listed as compound 7

SMILES | EC50 [µM]
Cc1nc(O)c2c(C(N)=O)cn([C@@H]3O[C@H](CO)[C@@H](O)[C@H]3O)c2n1 [Compound 7] | > 38
